# Source: US20140193454A1, “METHOD FROM PREPARING CERIPORIA LACERATA CULTURE EXTRACT AND PHARMACEUTICAL COMPOSITION FOR PREVENTION OR TREATMENT OF DIABETES AND DIABETIC COMPLICATIONS COMPRISING CERIPORIA LACERATA CULTURE EXTRACT AS ACTIVE INGREDIENT” (priority 2013, published 2014)
# Experiments:
# Type in all cases: in vivo
# [1] = tested on: C57BL/Ksj (BL/Ls) homozygous diabetic (db/db) mice; experiment: Weekly tail vein blood glucose level after 12-hr fasting; details: after 3 weeks (diabetes control about 400 mg/dL)
# Text: (§1) In order to examine the blood glucose lowering effects of the Ceriporia lacerata culture and exopolysaccharide, C57BL/Ksj (BL/Ls) homozygous diabetic (db/db) mice (SPF) as a typical type 2 diabetes animal model were used in this experiment. db/db mice are animals in which diabetes is caused by a point mutation in the leptin receptor gene Lepr of chromosome 4. In the animals, as the leptin receptor decreases, the signaling ability decreases, and thus the blood glucose level increases. The animals are recognized as an insulin-independent diabetes model and suitable for the evaluation and comparison of experimental results on the basis of raw data. For these reason, these db/db mice were selected in this experiment. The db/db mice used in this study were 6-week-old male mice weighing about 30-40 g, and these mice were produced in Japan SLC Inc. and obtained from Central Laboratory Animal (Korea). The mice were acclimated for about 7 days, and the weight and blood glucose level thereof were measured. 30 healthy animals suitable for experimentation and having no abnormal general conditions were selected. […] During the rearing period of 6 week, a change in the weight was measured once weekly. In order to examine a change in the blood glucose level, the tail vein blood glucose level was measured using ACCU-CHEK Sensor (Germany) once weekly after 12-hr fasting. […]
# [2] = tested on: C57BL/Ksj (BL/Ls) homozygous diabetic (db/db) mice; experiment: Changes in food intake, water intake and weight of db/db mice over 6 weeks; details: 300 mg/kg, versus other groups
# Text: as §1
# [3] = tested on: C57BL/Ksj (BL/Ls) homozygous diabetic (db/db) mice; experiment: Organ weight of db/db mice after 6-week oral administration; details: 300 mg/kg orally every day, 6 weeks
# Description: In the animals, as the leptin receptor decreases, the signaling ability decreases, and thus the blood glucose level increases. The animals are recognized as an insulin-independent diabetes model and suitable for the evaluation and comparison of experimental results on the basis of raw data. For these reason, these db/db mice were selected in this experiment. […] The mice were acclimated for about 7 days, and the weight and blood glucose level thereof were measured. 30 healthy animals suitable for experimentation and having no abnormal general conditions were selected. The experimental animals were divided according to a randomized block design into a negative control group, an exopolysaccharide low-dose group (150 mg/kg), an exopolysaccharide high-dose group (300 mg/kg) and a positive control group (metformin-300 mg/kg) such that the blood glucose level and weight are equal between the groups. These mice were reared for 6 weeks. In addition, normal and control groups, each consisting of 6 animals, were kept for 6 weeks under the same conditions. All test substances and positive control substances were orally administered at the same point of time every day, and the normal and negative control groups were orally administered with water (FIG. 11). During the rearing period of 6 week, a change in the weight was measured once weekly. In order to examine a change in the blood glucose level, the tail vein blood glucose level was measured using ACCU-CHEK Sensor (Germany) once weekly after 12-hr fasting. The experimental animals were fed with a commercially available animal solid feed (Samtaco Co. Ltd., Korea) and allowed access to water ad libitum. The animals were reared under the conditions of temperature of 23±3° C. and relative humidity of 50±10% with a 12-hr light/12-hr dark cycle (lighting: a.m. 8 to p.m. 8). For sacrifice of the experimental animals, all the animals were fasted for 12 hours and anesthetized with ether. Blood was taken from the saphenous vein and placed in a tube for serum separation. Then, the blood was centrifuged at 3,000 rpm for 20 minutes to obtain serum which was to be used as a sample for analysis of biochemical markers. Immediately after sacrifice, the liver, abdominal fat and the like were extracted from all the animals, weighed, fast-frozen at -80° C. and stored until use. Portions of the extracted liver and pancreas were fixed in 4% paraformaldehyde solution and subjected to histological analysis.
structure (smiles),measurement,setting,value
"CN(C)C(=N)N=C(N)N [MET, metformin]",blood glucose level after 12-hr fasting,[1],no increase in the blood glucose level
same,feed intake,[2],significantly lower
same,water intake,[2],significantly lower
same,Abdominal fat (W/BW),[3],2.564 ± 0.33 W/BW
same,Kidney (W/BW),[3],0.39 ± 0.03 W/BW
same,Kidney fat (W/BW),[3],0.89 ± 0.13 W/BW
same,Liver (W/BW),[3],2.60 ± 0.19 W/BW
same,Spleen (W/BW),[3],0.03 ± 0.02 W/BW
